Laboratory results published in patent publication US20250223268A1, “4-Methylsulfonylbenzamide Compound, Preparation Method, Herbicidal Composition And Use” (Jiangsu Flag Chemical Industry Co., Ltd., priority 2022, published 2025).

How the values were obtained:
Format in all cases: in vivo
Leptochloa chinensis [1] = assay: Greenhouse herbicidal activity and crop safety comparison (Test Example 2); settings: Rate 150 g/ha
Text: (§1) Pre-emergence: Seeds of gramineous weeds (Echinochloa crusgalli, Echinochloa crusgalli var. zelayensis, Echinochloa phyllopogon, Eleusine indica, Digitaria sanguinalis, Leptochloa chinensis, Setaria viridis, Alopecurus japonicus Steud, Beckmannia syzigachne, Polypogon fugax, Alopecurus aequalis, Lolium multiflorum, Poa annua, Aegilops tataschii, Avena fatua, Alopecurus myosuroides, Bromus japonicus), broadleaf weeds (Eclipta prostrata, Amaranthus retroflexus, Rorippa indica, Myosoton aquaticum, Veronica didyma, Galium aparine, Solanum nigrum, Xanthium sibiricum, Conyza canadensis, Sesbania cannabina, Sagittaria trifolia), and Cyperus iria (Cyperus iria, Scirpus juncoides, Cyperus difformis, etc.) were sown in plastic pots (7 cm diameter) with nutrient soil and bottom holes. Crop seeds (including Oryza sativa subsp. indica, Oryza sativa subsp. japonica, Oryza sativa L. var. Glutinosa matsum, Triticum aestivum, Zea mays, Sorghum bicolor, Setaria italica, Glycine max, Gossypium hirsutum, Brassica napus, Arachis hypogaea) were sown in plastic pots (10 cm diameter) with nutrient soil and bottom holes. After sowing, the seeds were lightly covered with soil, and the soil was moistened via bottom water absorption. The pots were placed in a constant-temperature light-controlled growth chamber for 24 hours before soil spraying. Spraying was performed using a 3WP-2000 walking-type spray tower (produced by the Nanjing Agricultural Mechanization Institute, Ministry of Agriculture) with a spindle speed of 96 mm/r, spray height of 300 mm, effective spray width of 350 mm, spray area of 0.35 m^2, and nozzle flow rate of 390 mL/min.
(§2) After treatment, the test materials were air-dried naturally in the laboratory and then transferred to the growth chamber. Results were assessed 14-30 days later.
(§3) Post-emergence: Seeds of gramineous weeds (Echinochloa crusgalli, Echinochloa crusgalli var. zelayensis, Echinochloa phyllopogon, Eleusine indica, Digitaria sanguinalis, Leptochloa chinensis, Setaria viridis, Alopecurus japonicus Steud, Beckmannia syzigachne, Polypogon fugax, Alopecurus aequalis, Lolium multiflorum, Poa annua, Aegilops tataschii, Avena fatua, Alopecurus myosuroides, Bromus japonicus), broadleaf weeds (Eclipta prostrata, Amaranthus retroflexus, Rorippa indica, Myosoton aquaticum, Veronica didyma, Galium aparine, Solanum nigrum, Xanthium sibiricum, Conyza canadensis, Sesbania cannabina, Sagittaria trifolia), and Cyperus iria (Cyperus iria, Scirpus juncoides, Cyperus difformis, etc.) were sown in plastic pots (7 cm diameter) with nutrient soil and bottom holes. Crop seeds (including Oryza sativa subsp. indica, Oryza sativa subsp. japonica, Oryza sativa L. var. Glutinosa matsum, Triticum aestivum, Zea mays, Sorghum bicolor, Setaria italica, Glycine max, Gossypium hirsutum, Brassica napus, Arachis hypogaea) were sown in plastic pots (10 cm diameter) with nutrient soil and bottom holes. After sowing, the pots were placed in the growth chamber until the plants reached the 3-6 leaf stage for foliar spraying. Post-treatment, the materials were air-dried naturally and returned to the growth chamber. Results were assessed 14-21 days later.
(§4) • A: Fresh weight inhibition rate≥80% to 100%; • B: Fresh weight inhibition rate[…] to <80%; • C: Fresh weight inhibition rate≥40% to <60%; • D: Fresh weight inhibition rate≥20% to <40%; • E: Fresh weight inhibition rate<20%; • NT: Not tested.
(§5) Using the above method, the herbicidal activity and crop safety of the present compounds were compared with structurally similar known compounds (CK1, CK2, CK3, CK4: compounds 4-756, 4-759, 1-557, 1-563 from WO2012028579A1; CK5: compound 290-1 from WO2013087577A1; CK6: compound 1-129 from WO2011035874A1).

[2] = test system: Oryza sativa subsp. indica; assay: as above; settings: Rate 150 g/ha
Text: as §1, §2, §3, §4, §5

[3] = test system: Oryza sativa subsp. japonica; assay: as above; settings: Rate 150 g/ha
Text: as §1, §2, §3, §4, §5

Cyperus iria = assay: Greenhouse herbicidal activity assay, post-emergence; settings: Post-emergence test, rate 150 g a.i./hm^2, grade by fresh weight inhibition rate
Procedure, shortened: (§6)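 Weeds were sown in nutrient soil in 7 cm pots and grown in a growth chamber to the 3-6 leaf stage, then foliar-sprayed, air-dried and returned to the chamber. Fresh weight inhibition was scored 14-21 days later in bands from A (≥80% to 100%) to E (<20%).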

Eclipta prostrata = assay: as above; settings: Post-emergence test, rate 150 g a.i./hm^2, grade by fresh weight inhibition rate
Procedure, shortened: as §6

Leptochloa chinensis [4] = assay: as above; settings: Post-emergence test, rate 150 g a.i./hm^2, grade by fresh weight inhibition rate
Procedure, shortened: as §6

Echinochloa crusgalli [5] = assay: Greenhouse herbicidal activity and crop safety comparison (Test Example 2); settings: Rate 150 g/ha
Text: as §1, §2, §3, §4, §5

Echinochloa crusgalli [6] = assay: Greenhouse herbicidal activity assay, post-emergence; settings: Post-emergence test, rate 150 g a.i./hm^2, grade by fresh weight inhibition rate
Procedure, shortened: as §6

Digitaria sanguinalis = assay: as above; settings: Post-emergence test, rate 150 g a.i./hm^2, grade by fresh weight inhibition rate
Procedure, shortened: as §6

| SMILES | Leptochloa chinensis, control efficacy grading (fresh weight inhibition rate) (Leptochloa chinensis [1]) | Oryza sativa subsp. indica, grading of fresh weight inhibition rate (crop safety) [2] | Oryza sativa subsp. japonica, grading of fresh weight inhibition rate (crop safety) [3] | Control efficacy grade, Cyperus iria (Cyperus iria) | Control efficacy grade, Eclipta prostrata (Eclipta prostrata) | Control efficacy grade, Leptochloa chinensis (Leptochloa chinensis [4]) | Echinochloa crusgalli, control efficacy grading (fresh weight inhibition rate) (Echinochloa crusgalli [5]) | Control efficacy grade, Echinochloa crusgalli (Echinochloa crusgalli [6]) | Control efficacy grade, Digitaria sanguinalis (Digitaria sanguinalis) | inhibition at 150 g/ha (Echinochloa crusgalli [5]; Echinochloa crus-galli, read-out: Echinochloa crusgalli, control efficacy grading (fresh weight inhibition rate)) | pest or weed control at 150 g/ha (Cyperus iria; Cyperus iria, read-out: Control efficacy grade, Cyperus iria) | pest or weed control at 150 g/ha (Digitaria sanguinalis; Digitaria sanguinalis, read-out: Control efficacy grade, Digitaria sanguinalis) | pest or weed control at 150 g/ha (Echinochloa crusgalli [6]; Echinochloa crus-galli, read-out: Control efficacy grade, Echinochloa crusgalli) | pest or weed control at 150 g/ha (Eclipta prostrata; Eclipta prostrata, read-out: Control efficacy grade, Eclipta prostrata) | pest or weed control at 150 g/ha (Leptochloa chinensis [4]; Dinebra chinensis, read-out: Control efficacy grade, Leptochloa chinensis) |
| --- | --- | --- | --- | --- | --- | --- | --- | --- | --- | --- | --- | --- | --- | --- | --- |
| CC(C)c1nnc(NC(=O)c2ccc(S(C)(=O)=O)c(S(=O)(=O)C3CCCC3)c2Cl)o1 [Compound 3-549] | A (Fresh weight inhibition rate≥80% to 100%) | E (Fresh weight inhibition rate<20%) | E (Fresh weight inhibition rate<20%) | A (Fresh weight inhibition rate≥80% to 100%) | A (Fresh weight inhibition rate≥80% to 100%) | A (Fresh weight inhibition rate≥80% to 100%) |  |  |  |  |  |  |  |  |  |
| CS(=O)(=O)c1ccc(C(=O)Nc2nnc(C3CC3)o2)c(Cl)c1S(=O)(=O)C1CCCC1 [Compound 3-665] | A (Fresh weight inhibition rate≥80% to 100%) | E (Fresh weight inhibition rate<20%) | E (Fresh weight inhibition rate<20%) | B (Fresh weight inhibition rate≥260% to <80%) | A (Fresh weight inhibition rate≥80% to 100%) | A (Fresh weight inhibition rate≥80% to 100%) |  |  |  |  |  |  |  |  |  |
| Cc1nnc(NC(=O)c2ccc(S(C)(=O)=O)c(S(=O)(=O)Cc3ccccc3)c2Cl)o1 [Compound 3-71] | A (Fresh weight inhibition rate≥80% to 100%) | E (Fresh weight inhibition rate<20%) | E (Fresh weight inhibition rate<20%) | A (Fresh weight inhibition rate≥80% to 100%) | A (Fresh weight inhibition rate≥80% to 100%) | A (Fresh weight inhibition rate≥80% to 100%) | C (Fresh weight inhibition rate≥40% to <60%) |  |  |  |  |  |  |  |  |
| CC(C)c1nnc(NC(=O)c2ccc(S(C)(=O)=O)c(S(=O)(=O)C3CCC3)c2Cl)o1 [Compound 3-544] | A (Fresh weight inhibition rate≥80% to 100%) | E (Fresh weight inhibition rate<20%) | E (Fresh weight inhibition rate<20%) | A (Fresh weight inhibition rate≥80% to 100%) | A (Fresh weight inhibition rate≥80% to 100%) | A (Fresh weight inhibition rate≥80% to 100%) |  | B (Fresh weight inhibition rate≥260% to <80%) |  |  |  |  |  |  |  |
| Cc1nnc(NC(=O)c2ccc(S(C)(=O)=O)c(S(=O)(=O)CCCl)c2Cl)o1 [Compound 3-216] | A (Fresh weight inhibition rate≥80% to 100%) | E (Fresh weight inhibition rate<20%) | E (Fresh weight inhibition rate<20%) |  |  | A (Fresh weight inhibition rate≥80% to 100%) |  |  |  |  |  |  |  |  |  |
| CC(C)c1nnc(NC(=O)c2ccc(S(C)(=O)=O)c(S(=O)(=O)CC3CC3)c2Cl)o1 [Compound 3-534] | A (Fresh weight inhibition rate≥80% to 100%) | E (Fresh weight inhibition rate<20%) | E (Fresh weight inhibition rate<20%) | A (Fresh weight inhibition rate≥80% to 100%) | A (Fresh weight inhibition rate≥80% to 100%) | B (Fresh weight inhibition rate≥260% to <80%) |  | B (Fresh weight inhibition rate≥260% to <80%) | B (Fresh weight inhibition rate≥260% to <80%) |  |  |  |  |  |  |
| CCCS(=O)(=O)c1c(S(C)(=O)=O)ccc(C(=O)Nc2nnnn2C)c1Cl [Compound 1-5, 2-chloro-N-(1-methyl-1H-tetrazol-5-yl)-4-(methylsulfonyl)-3-(propylsulfonyl)benzamide] |  | E (Fresh weight inhibition rate<20%) | E (Fresh weight inhibition rate<20%) |  |  |  |  |  |  | 80 to 100% | 80 to 100% | 80 to 100% | 80 to 100% | 80 to 100% | 80 to 100% |
| CS(=O)(=O)c1ccc(C(=O)Nc2nnc(C3CC3)o2)c(Cl)c1S(=O)(=O)CC1CC1 [Compound 3-650] | B (Fresh weight inhibition rate≥260% to <80%) | E (Fresh weight inhibition rate<20%) | E (Fresh weight inhibition rate<20%) | A (Fresh weight inhibition rate≥80% to 100%) | A (Fresh weight inhibition rate≥80% to 100%) | A (Fresh weight inhibition rate≥80% to 100%) |  | B (Fresh weight inhibition rate≥260% to <80%) | A (Fresh weight inhibition rate≥80% to 100%) |  |  |  |  |  |  |
| CC(C)c1nnc(NC(=O)c2ccc(S(C)(=O)=O)c(S(=O)(=O)C3CC3)c2Cl)o1 [Compound 3-539] | A (Fresh weight inhibition rate≥80% to 100%) | E (Fresh weight inhibition rate<20%) | E (Fresh weight inhibition rate<20%) | B (Fresh weight inhibition rate≥260% to <80%) |  | A (Fresh weight inhibition rate≥80% to 100%) |  | B (Fresh weight inhibition rate≥260% to <80%) | B (Fresh weight inhibition rate≥260% to <80%) |  |  |  |  |  |  |
| C#CCS(=O)(=O)c1c(S(C)(=O)=O)ccc(C(=O)Nc2nnc(C)o2)c1Cl [Compound 3-151] | A (Fresh weight inhibition rate≥80% to 100%) | E (Fresh weight inhibition rate<20%) | E (Fresh weight inhibition rate<20%) | A (Fresh weight inhibition rate≥80% to 100%) | A (Fresh weight inhibition rate≥80% to 100%) | A (Fresh weight inhibition rate≥80% to 100%) |  | B (Fresh weight inhibition rate≥260% to <80%) | B (Fresh weight inhibition rate≥260% to <80%) |  |  |  |  |  |  |
